# Measurements: patent US20110046090A1 (BrainCells Inc., priority 2005, published 2011)
# pEC50, pIC50: −log10 of the molar value. Where “and” joins values, the source holds several entries; their conditions need not be identical. Equal values may be shown once. Entries after “also recorded” stand apart in the source; their conditions may differ. Read-outs that look alike come from different tables or passages of the source.
# Legend:
# [1] = system: human neural stem cells (hNSCs); assay: neuronal differentiation of cultured human neural stem cells (TUJ-1 staining), agents alone and in combination; conditions: for pEC50: % of neuronal positive control, basal media subtracted; for effect on differentiation of hNSCs along a neuronal lineage, agent alone: dose-response, normalized to neuronal positive control;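 on all read-outs here: cells kept in mitogen-free test media, with growth-factor-free basal medium as the negative control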
# Method: The presence of synergy was determined by use of a combination index (CI). […] The CI is a quantitative measure of the nature of drug interactions, comparing the EC50's of two compounds, when each is assayed alone, to the EC50 of each compound when assayed in combination. The combination index (CI) is equal to the following formula:
# where C1 and C2 are the concentrations of a first and a second compound, respectively, resulting in 50% activity in neuronal differentiation when assayed in combination; and IC1 and IC2 are the concentrations of each compound resulting in 50% activity when assayed independently.
# mGluR3 = mGluR3 (Homo sapiens, UniProt Q14832); conditions: cited from earlier work
# mGluR3, sequence (Q14832 23-879): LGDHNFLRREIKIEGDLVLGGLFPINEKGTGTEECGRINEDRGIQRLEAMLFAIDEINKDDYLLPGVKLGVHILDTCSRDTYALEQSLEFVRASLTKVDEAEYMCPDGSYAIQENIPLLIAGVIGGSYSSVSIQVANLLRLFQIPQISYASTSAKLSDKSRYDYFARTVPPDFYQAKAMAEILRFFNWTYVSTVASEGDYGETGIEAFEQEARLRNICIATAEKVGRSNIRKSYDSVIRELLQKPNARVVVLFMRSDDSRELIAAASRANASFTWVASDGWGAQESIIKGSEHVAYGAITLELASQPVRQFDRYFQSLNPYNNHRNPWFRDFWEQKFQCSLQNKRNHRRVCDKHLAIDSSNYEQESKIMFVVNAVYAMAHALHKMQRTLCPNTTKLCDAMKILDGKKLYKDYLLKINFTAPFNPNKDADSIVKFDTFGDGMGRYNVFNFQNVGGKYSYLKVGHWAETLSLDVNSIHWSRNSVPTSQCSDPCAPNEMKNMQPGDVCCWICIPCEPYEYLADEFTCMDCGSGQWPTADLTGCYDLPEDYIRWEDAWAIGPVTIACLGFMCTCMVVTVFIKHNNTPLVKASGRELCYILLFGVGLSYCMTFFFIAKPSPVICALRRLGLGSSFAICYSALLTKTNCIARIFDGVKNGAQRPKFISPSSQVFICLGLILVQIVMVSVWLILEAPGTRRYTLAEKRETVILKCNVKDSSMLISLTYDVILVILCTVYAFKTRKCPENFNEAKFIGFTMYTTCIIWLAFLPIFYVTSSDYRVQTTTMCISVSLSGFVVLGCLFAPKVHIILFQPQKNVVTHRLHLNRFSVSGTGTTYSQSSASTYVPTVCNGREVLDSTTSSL
# mGluR2 = mGluR2 (Homo sapiens, UniProt Q14416); conditions: cited from earlier work
# mGluR2, sequence (Q14416 19-872): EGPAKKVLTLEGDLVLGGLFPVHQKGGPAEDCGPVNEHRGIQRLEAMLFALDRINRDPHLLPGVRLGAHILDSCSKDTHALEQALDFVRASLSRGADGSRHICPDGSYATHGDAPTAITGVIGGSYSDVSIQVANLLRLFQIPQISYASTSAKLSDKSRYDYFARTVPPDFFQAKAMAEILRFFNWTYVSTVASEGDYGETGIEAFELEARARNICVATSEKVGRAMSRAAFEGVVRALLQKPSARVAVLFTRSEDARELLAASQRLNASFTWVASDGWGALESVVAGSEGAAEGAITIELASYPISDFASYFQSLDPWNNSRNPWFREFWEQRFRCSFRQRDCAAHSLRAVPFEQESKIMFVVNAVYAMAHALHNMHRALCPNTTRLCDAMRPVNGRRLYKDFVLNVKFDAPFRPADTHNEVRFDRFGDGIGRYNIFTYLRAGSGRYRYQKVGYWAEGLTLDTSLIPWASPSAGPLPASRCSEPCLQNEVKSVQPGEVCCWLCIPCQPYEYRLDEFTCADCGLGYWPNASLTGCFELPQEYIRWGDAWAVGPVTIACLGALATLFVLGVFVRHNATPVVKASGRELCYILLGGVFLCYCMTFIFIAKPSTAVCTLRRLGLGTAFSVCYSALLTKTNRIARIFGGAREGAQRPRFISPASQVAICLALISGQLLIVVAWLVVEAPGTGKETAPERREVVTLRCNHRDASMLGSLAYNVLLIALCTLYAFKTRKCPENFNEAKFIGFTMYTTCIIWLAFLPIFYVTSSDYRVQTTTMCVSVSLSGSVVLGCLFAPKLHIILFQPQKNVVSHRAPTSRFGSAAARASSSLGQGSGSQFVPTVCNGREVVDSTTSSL
# Male Fischer F344 rats = assay: novelty suppressed feeding antidepressant/anxiolytic assay; assay type: in vivo, rat; conditions: oral gavage once daily for 21 days, compounds given two hours prior to testing, 5.0 mg/kg each
# Method: Male Fischer F344 rats were administered test compound(s)+vehicle or vehicle only (negative control) by oral gavage once daily for 21 days and evaluated for antidepressant/anxiolytic activity in the novelty suppressed feeding assay as follows. Twenty-four hours prior to behavioral testing, all food was removed from the home cage. At the time of testing a single pellet was placed in the center of a novel arena. Animals were placed in the corner of the arena and latency to eat the pellet was recorded. Compounds were administered two hours prior to testing. A decreased latency to eat the food pellet is indicative of both neurogenesis and antidepressant activity.
# human mGlu2 receptors = human mGlu2 receptors (Homo sapiens, UniProt Q14416); conditions: in vitro; e.g., below about 10 nM, or below about 5 nM; cited from earlier work
# human mGlu2 receptors, sequence (Q14416 19-872): as above
# human mGlu3 receptors = human mGlu3 receptors (Homo sapiens, UniProt Q14832); conditions: in vitro; e.g., below about 10 nM, or below about 5 nM; cited from earlier work
# human mGlu3 receptors, sequence (Q14832 23-879): as the sequence (Q14832 23-879) above
# [2] = system: human neural stem cells (hNSCs); assay: astrocyte differentiation of cultured human neural stem cells (GFAP staining); assay type: cell-based; conditions: dose-response, normalized to astrocyte positive control
# Method: Mitogen-free test media with a positive control for neuronal differentiation, mitogen-free test media with 50 ng/ml BMP-2, 50 ng/ml LIF and 0.5% FBS served as a positive control for astrocyte differentiation, and basal media without growth factors served as a negative control.
# [3] = system: human neural stem cells (hNSCs); assay: toxicity on human neural stem cells (cell count, nuclear dye Hoechst 33342); assay type: cell-based; conditions: concentrations up to 100 μM; toxic doses fall below 80% of basal cell count
# Method: Data is shown as a percent of the basal media cell count. Toxic doses typically fall below 80% of the basal cell count.
# Experiments were carried out as described in Example 1, except that the positive control contained basal media only, and cells were stained with nuclear dye (Hoechst 33342).
# Male Fisher F344 rats = assay: chronic dosing of rats: proliferation and differentiation of neural cells in the dentate gyrus (BrdU); assay type: in vivo, rat; conditions: for increase in differentiation of neural progenitor cells into mature neurons, subgranular zone of dentate gyrus: chronic treatment
# Method: Male Fisher F344 rats were injected with varying doses of baclofen as a test compound with vehicle, or vehicle only (negative control), once daily for twenty eight days. Rats were injected once daily with 100 mg/kg BrdU on days 9-14 of test compound administrations. Rats were then anesthetized and killed by transcardial perfusion of 4% paraformaldehyde at day 28. Brains were rapidly removed and stored in 4% paraformaldehyde for 24 hours and then equilibrated in phosphate buffered 30% sucrose. Free floating 40 micron sections were collected on a freezing microtome and stored in cryoprotectant. Antibodies against BrdU and cell types of interest (e.g., neurons, astrocytes, oligodendrocytes, endothelial cells) were used for detection of cell differentiation.
# Briefly, tissues were washed (0.01 M PBS), endogenous peroxidase blocked with 1% hydrogen peroxide, and incubated in PBS (0.01 M, pH 7.4, 10% normal goat serum, 0.5% Triton X-100) for 2 hours at room temperature. Tissues were then incubated with primary antibody at 4° C. overnight. The tissues were rinsed in PBS followed by incubation with biotinylated secondary antibody (1 hour at room temperature). Tissues were further washed with PBS and incubated in avidin-biotin complex kit solution at room temperature for 1 hour. Various fluorophores linked to streptavidin were used for visualization. Tissues were washed with PBS, briefly rinsed in dH2O, serially dehydrated and coverslipped. Cell counting and unbiased stereology was limited to the hippocampal granule cell layer proper and one 50 um border along the hilar margin that includes the neurogenic subgranular zone. The proportion of BrdU cells displaying a lineage-specific phenotype was determined by scoring the co-localization of cell phenotype markers with BrdU using confocal microscopy. Split panel and z-axis analysis were used for all counting. All counts were performed using multi-channel configuration with a 40× objective and electronic zoom of 2. When possible, 100 or more BrdU-positive cells were scored for each marker per animal. Each cell was manually examined in first full “z”-dimension and only those cells for which the nucleus is unambiguously associated with the lineage-specific marker were scored as positive.
# The total number of BrdU-labeled cells per hippocampal granule cell layer and subgranule zone were determined using diaminobenzidine stained tissues. Over-estimation was corrected using the Abercrombie method for nuclei with empirically determined average diameter of 13 um within a 40 um section.
# [4] = system: human neural stem cells (hNSCs); assay: growth of individual neurospheres comprising hNSCs (proliferation); assay type: cell-based; conditions: 1 μM, 10 μM and 30 μM; percent increase over basal neurosphere size as a function of time
# Method: Results are shown as a percent increase over the basal neurosphere size. Negative control (open circles) is basal media without compound, and positive control (open squares) is basal media with a known proliferative agent.
# FIG. 7 is a time-response curve showing the effect of 1 μM (solid diamonds), 10 μM (solid squares), and 30 μM (solid circles) concentrations of baclofen on the growth of individual neurospheres comprising human neural stem cells (hNSCs) as a function of time. Results are shown as a percent increase over the basal neurosphere size. Negative control (open circle) is basal media without compound, and positive control (open square) is basal media with a known proliferative agent.
# [5] = in vivo; cited from earlier work
# [6] = cited from earlier work
# [7] = Homo sapiens, Neural stem cell, read-out: EC50 for neuronal differentiation, agent alone, compound run individually
# [8] = read-out: EC50 for neuronal differentiation, agent alone, compound run individually
smiles,measurement,setting,value
CC(C)c1c(C(=O)Nc2ccccc2)c(-c2ccccc2)c(-c2ccc(F)cc2)n1CC[C@@H](O)C[C@@H](O)CC(=O)O [atorvastatin],pEC50,[1]; [7],8.52
"NC(=O)c1ncn([C@@H]2O[C@H](CO)[C@@H](O)[C@H]2O)n1 [ribaviran, ribavirin]",pEC50,[1]; [7],5.21
C[C@H](CS)C(=O)N1CCC[C@H]1C(=O)O [captopril],pEC50,[1]; [7],5.42
"NC1(C(=O)O)CCc2cc(P(=O)(O)O)ccc21 (racemic) [APICA, (RS)-1-amino-5-phosphonoindan-1-carboxylic acid]",pIC50,mGluR3,~4.52
same,pIC50,mGluR2,~4.52
CCCc1nc2c(C)cc(-c3nc4ccccc4n3C)cc2n1Cc1ccc(-c2ccccc2C(=O)O)cc1 [telmisartan],pEC50,[1]; [7],7.70
O=C(O)[C@@H]1C[C@@H](C2CCCCC2)CN1C(=O)CP(=O)(O)CCCCc1ccccc1 [fosinoprilat],pEC50,[1]; [7],5.48
CCCCc1ncc(/C=C(\Cc2cccs2)C(=O)O)n1Cc1ccc(C(=O)O)cc1 [eprosartan],pEC50,[1]; [7],7.52
Clc1ccc2c(c1)N=C(N1CCNCC1)c1ccccc1N2 [N-desmethylclozapine],pEC50,[1]; [8],< 4.00
NC(=O)C[S+]([O-])C(c1ccccc1)c1ccccc1 (stereo not drawn) [modafinil],pEC50,[1]; [7],5.46
"CCC[C@H](N[C@@H](C)C(=O)N1[C@H](C(=O)O)C[C@@H]2CCCC[C@@H]21)C(=O)O [perindoprilat, Perindoprilat]",pEC50,[1]; [7],5.46
O=C1CC[C@@]2(O)[C@H]3Cc4ccc(O)c5c4[C@@]2(CCN3CC2CC2)[C@H]1O5 [naltrexone],pEC50,[1]; [7],5.14
"C[C@H](N[C@@H](CCc1ccccc1)C(=O)O)C(=O)N1Cc2ccccc2C[C@H]1C(=O)O [quinaprilat, Quinaprilat]",pEC50,[1]; [7],5.62
CCCCN(CC)c1nc(C)nc2c1c(C)c(C)n2-c1c(C)cc(C)cc1C [antalarmin],pEC50,[1]; [7],5.63
CCOC(=O)[C@H](CCc1ccccc1)N[C@H]1CCc2ccccc2N(CC(=O)O)C1=O [benazepril],pEC50,[1]; [7],5.26
"CC(C)C[C@H](CN)CC(=O)O [pregabalin, (S)-(+)-3-isobutylgaba]",pEC50,[1]; [8],6.24 and 5.47 and 5.38
same,antidepressant and anxiolytic effects in novelty suppressed feeding,Male Fischer F344 rats,no effects
"N[C@@]1(C(=O)O)CO[C@H]2[C@H](C(=O)O)[C@H]21 [LY379268, (−)-2-Oxa-4-aminobicyclohexane-4,6-dicarboxylic acid]",EC50,human mGlu2 receptors,low nanomolar range
same,EC50,human mGlu3 receptors,low nanomolar range
"NCC1(CC(=O)O)CCCCC1 [gabapentin, Gabapentin]",pEC50,[1]; [8],6.17 and 5.36 and 5.58
COC(=O)[C@@H]1[C@H]2C[C@H]3c4[nH]c5ccccc5c4CCN3C[C@@H]2CC[C@@H]1O [yohimbine],pEC50,[1]; [7],5.71
"NCC(CC(=O)O)c1ccc(Cl)cc1 (stereo not drawn) [baclofen, Baclofen]",effect on differentiation of hNSCs along an astrocyte lineage,[2],did not exhibit a significant effect on astrocyte differentiation
same,effect on differentiation of hNSCs along an astrocyte lineage,[2]; listed as Baclofen,no detectable effect
same,pEC50,[1]; [7],5.42
same,"effect on differentiation of hNSCs along a neuronal lineage, agent alone",[1],significant enhancement
same,"effect on differentiation of hNSCs along a neuronal lineage, agent alone",[1]; listed as Baclofen,promoted neuronal differentiation
same,pEC50,[1]; [8],5.49
same,toxicity on hNSCs (cell count as percent of basal media cell count),[3],Neither GABA nor baclofen exhibited toxicity; also recorded: did not exhibit significant toxicity
same,"increase in differentiation of neural progenitor cells into mature neurons, subgranular zone of dentate gyrus",Male Fisher F344 rats; 0.75 mg/kg/day,8%
same,"increase in differentiation of neural progenitor cells into mature neurons, subgranular zone of dentate gyrus",Male Fisher F344 rats; 1.50 mg/kg/day,5%
same,neural cell proliferation within the dentate gyrus (mean number of BrdU-positive cells),"Male Fisher F344 rats; injection once daily for twenty eight days, 0.75 and 1.50 mg/kg",dose-related increase in proliferation
same,neurogenic effects in vivo,Male Fisher F344 rats; once daily for twenty eight days,produces neurogenic effects with a rapid onset of action
same,effect on neurosphere growth / cell proliferation,[4],positive effect on cell proliferation
NCCCC[C@H](N[C@@H](CCc1ccccc1)C(=O)O)C(=O)N1CCC[C@H]1C(=O)O [lisinopril],pEC50,[1]; [7],5.42
NCCCC(=O)O [GABA],effect on differentiation of hNSCs along an astrocyte lineage,[2],no detectable effect; also recorded: did not exhibit a significant effect on astrocyte differentiation
same,"effect on differentiation of hNSCs along a neuronal lineage, agent alone",[1],promoted neuronal differentiation; also recorded: significant enhancement
same,toxicity on hNSCs (cell count as percent of basal media cell count),[3],Neither GABA nor baclofen exhibited toxicity; also recorded: did not exhibit significant toxicity
same,effect on neurosphere growth / cell proliferation,[4],positive effect on cell proliferation
CCCCc1nc(Cl)c(CO)n1Cc1ccc(-c2ccccc2-c2nn[nH]n2)cc1 [losartan],pEC50,[1]; [7],6.51
"COCCCOc1cc(C[C@@H](C[C@H](N)[C@@H](O)C[C@H](C(=O)NCC(C)(C)C(N)=O)C(C)C)C(C)C)ccc1OC [aliskiren, (2S,4S,5S,7S)-5-amino-N-(2-carbamoyl-2-methyl-propyl)-4-hydroxy-7-{[4-methoxy-3-(3-methoxypropoxy)phenyl]methyl}-8-methyl-2-propan-2-yl-nonanamide]",plasma half-life,[5],≈ 24 hours
same,pEC50,[1]; [7],5.55
same,water solubility,[6],good water solubility
CCOc1nc2cccc(C(=O)O)c2n1Cc1ccc(-c2ccccc2-c2nnn[nH]2)cc1 [candesartan],pEC50,[1]; [7],5.93
same,pEC50,[1]; [8],5.88
same,antidepressant and anxiolytic effects in novelty suppressed feeding,Male Fischer F344 rats,no effects
